Active and inactive are the calls of the source. No cut-off for these calls is given here.

As a reminder, the GI50 is the concentration at which growth is held to half of that of the control. In general, IC50 refers to the point on the concentration scale where inhibition reaches its midpoint. One may read the inhibition as how much of the control response was suppressed.

Data set [1] deals with MCF7. Description: Cytotoxicity against human MCF7 cells assessed as cell growth inhibition. The format is functional.
The subject of data set [2] is MDA-MB-231. The data set can be described thus: Cytotoxicity against human MDA-MB-231 cells assessed as cell growth inhibition incubated for 96 hrs by SRB assay. In kind it is functional.
Data set [3] is described as follows: Inhibition of bovine brain tubulin polymerization preincubated for 15 mins followed by GTP addition and measured after 20 mins by spectrophotometric analysis. Set-up: species or system Bos taurus.
The target in data set [4] is Tubulin (Homo sapiens) (UniProt P68371+Q9H4B7+P0DPH7+P68366+Q13509+Q71U36+P04350+Q3ZCM7+P07437+P68363+Q9BQE3+Q6PEY2+Q13885+Q9BVA1+Q9BUF5). The data set can be described thus: Inhibition of [3H]Colchicine binding to tubulin (unknown origin) at 5 uM incubated for 10 mins in presence of GTP by Beckman scintillation counter relative to control. The format is protein-complex assay.

Data set [5] concerns Mus musculus. The data set can be described thus: Vascular disrupting activity in female BALB/c mouse implanted with orthotropic 4T1-Luc cells assessed as reduction in bioluminescence imaging signal at 50 mg/kg, ip measured at 4 hrs by imaging analysis relative to control. The format is functional. Set-up: scale not given: the % may be the effect or the level left.
Data set [6] concerns Mus musculus. The data set can be described thus: Vascular disrupting activity in female BALB/c mouse implanted with orthotropic 4T1-Luc cells assessed as reduction in bioluminescence imaging signal at 20 mg/kg, ip measured at 4 hrs by imaging analysis. In kind it is functional, organism-based.
For data set [7], the system named is Mus musculus. Description: Vascular disrupting activity in female BALB/c mouse implanted with orthotropic 4T1-Luc cells assessed as reduction in bioluminescence imaging signal at 20 mg/kg, ip measured at 24 hrs by imaging analysis relative to control. The format is functional. Set-up: scale not given: the % may be the effect or the level left.
Data set [8] is described as follows: Toxicity in female BALB/c mouse implanted with orthotropic 4T1-Luc cells assessed as animal death at >50 mg/kg, ip measured within 24 hrs. The format is organism-based. Particulars: in vivo.
In data set [9] the test system is Mus musculus. The data set can be described thus: Vascular disrupting agent in female syngenic BALB/c mouse implanted with orthotropic RENCA-Luc cells assessed as reduction in bioluminescence imaging signal at 50 mg/kg, ip measured at 4 hrs by imaging analysis relative to control. Details: scale not given: the % may be the effect or the level left. In kind it is functional.

Data set [10] deals with Mus musculus. Description: Vascular disrupting agent in female syngenic BALB/c mouse implanted with orthotropic RENCA-Luc cells assessed as reduction in bioluminescence imaging signal at 50 mg/kg, ip measured at 24 hrs by imaging analysis. In kind it is functional, organism-based.
Data set [11] deals with Mus musculus. The data set can be described thus: Vascular disrupting agent in female syngenic BALB/c mouse implanted with orthotropic RENCA-Luc cells assessed as reduction in bioluminescence imaging signal at 100 mg/kg, ip measured at 24 hrs by imaging analysis. In kind it is functional, organism-based.
The nature of data set [12]: Toxicity in female syngenic BALB/c mouse implanted with orthotropic RENCA-Luc cells assessed as animal death at 50 to 100 mg/kg, ip measured after 24 hrs. In kind it is organism-based. The conditions noted are these: in vivo, dose 50-100 mg/kg.
The subject of data set [13] is Mus musculus. The data set can be described thus: Vascular disrupting agent in female syngenic BALB/c mouse implanted with orthotropic RENCA-Luc cells assessed as reduction in bioluminescence imaging signal at 100 mg/kg, ip measured at 4 hrs by imaging analysis relative to control. Details: scale not given: the % may be the effect or the level left. The format is functional.

Take `COc1ccccc1-c1[nH]c2cc(OC)c(OC)c(OC)c2c1C(=O)c1cc(OC)c(OC)c(OC)c1`: the 50% growth inhibitory concentration (GI50) in data set [1] amounted to 85 nM; in [2], 6980 nM. Also, the midpoint of inhibition in [3], the IC50, lay at 920 nM. Further, the inhibition in data set [4] was 70%.

Turning to `COc1ccc2c(C(=O)c3cc(Cl)cc(Cl)c3)c(-c3ccc(OC)c(O)c3)[nH]c2c1`, the 50% growth inhibitory concentration (GI50) turned out to be 240 nM in data set [1] and 133 nM in data set [2]. This compound also came in with an IC50 in data set [3] of 740 nM. Besides, the inhibition in [4] amounted to 80%.

On to `COc1ccc(-c2[nH]c3c(OP(=O)([O-])[O-])c(OC)ccc3c2C(=O)c2cc(OC)c(OC)c(OC)c2)cc1OC.[Na+].[Na+]`, for which the Activity in [5] is 95%; in data set [7] it was 50%; in data set [8], “Toxic”. Moreover, the result in data set [6] was inactive.

Turning to `COc1cccc(-c2[nH]c3cc(OC)c(OC)c(OC)c3c2C(=O)c2cc(OC)c(OC)c(OC)c2)c1`, the GI50 in [1] is more than 5000 nM. The compound further showed an IC50 in [3] of more than 5000 nM.

Turning to `COc1ccc2c(C(=O)c3cc(OC)c(OC)c(OC)c3)c(-c3ccc(OC)c([N+](=O)[O-])c3)[nH]c2c1`, the 50% growth inhibitory concentration (GI50) in [1] was 120 nM; in data set [2], 275 nM. Also, in [3], the half-inhibitory concentration (IC50) was determined as 770 nM. Besides, the inhibition in [4] was 24%.

With `COc1ccc2c(C(=O)c3cc(OC)c(OC)c(OC)c3)c(-c3ccc(OC)c(N)c3)[nH]c2c1`, the concentration for 50% growth inhibition (GI50) in data set [1] was 20 nM; in [2], 36.9 nM. This compound gave a 50% inhibitory concentration (IC50) in [3] of 430 nM. Besides, the inhibition in data set [4] is 65%.

For `COc1ccc2c(C(=O)c3c(F)c(F)c(F)c(F)c3F)c(-c3ccc(OC)c(O)c3)[nH]c2c1`, the 50% growth inhibitory concentration (GI50) in data set [1] is more than 5000 nM. The compound further showed an IC50 in data set [3] of more than 20000 nM.

Regarding `COc1ccc(-c2[nH]c3c(C)c(C)ccc3c2C(=O)c2cc(OC)c(OC)c(OC)c2)cc1O`, the GI50 in data set [1] is more than 5000 nM. The compound also yielded an IC50 in data set [3] of more than 20000 nM.

For `COc1cccc(C(=O)c2c(-c3ccc(OC)c(O)c3)[nH]c3cc(OC)ccc23)c1`, the figures for the 50% growth inhibitory concentration (GI50) in data set [1] and in data set [2] were 490 nM and 537 nM, respectively. In data set [3], this compound registered an IC50 of 4200 nM. Also, the inhibition in data set [4] was 33%.

For the compound `COc1ccc(-c2[nH]c3c(OC)c(OC)c(OC)cc3c2C(=O)c2cc(OC)c(OC)c(OC)c2)cc1O`, the concentration for 50% growth inhibition (GI50) in [1] is more than 5000 nM. This compound registered an IC50 in data set [3] of more than 20000 nM.

Consider `COc1ccc(-c2[nH]c3c(OC)c(OC)ccc3c2C(=O)c2cc(OC)c(OC)c(OC)c2)cc1OP(=O)([O-])[O-].[Na+].[Na+]`, for which the Activity is reported as 15% in data set [9]; “Active; Little Change Observed Relative To 4 Hrs Compound Treatment” in [10]; “Active; Slight Recovery Observed” in data set [11]; “Non-toxic” in data set [12]; 91% in [13].

In the case of `COc1ccc(-c2[nH]c3c(O)c(OC)ccc3c2C(=O)c2cc(OC)c(OC)c(OC)c2)cc1`, the values for the GI50 in data set [1] and in data set [2] were 6 nM and 170 nM, respectively. This compound also came in with a 50% inhibitory concentration (IC50) in data set [3] of 860 nM.

Regarding `COc1ccc2c(C(=O)c3cc(OC)c(OC)c(OC)c3)c(-c3ccc(OC)c(Br)c3)[nH]c2c1`, the GI50 in [1] stood at 413 nM; in data set [2], 483 nM. This compound also showed an IC50 in [3] of 1200 nM. Besides, in data set [4], the inhibition amounted to 34%.

As for `COc1ccc2c(C(=O)c3cccc(F)c3)c(-c3ccc(OC)c(O)c3)[nH]c2c1`, the figures for the GI50 in data set [1] and in [2] were 2500 nM and 7110 nM, respectively. In data set [3], half-maximal inhibition (IC50) was put at 1600 nM. The inhibition in data set [4] turned out to be 25%.

As for `COc1ccc(-c2[nH]c3cc(OC)c(OC)c(OC)c3c2C(=O)c2cc(OC)c(OC)c(OC)c2)cc1`, the GI50 in data set [1] is 1500 nM. Besides, in [3], the IC50 was more than 5000 nM.

For `COc1ccc(-c2[nH]c3c(OC)c(OC)ccc3c2C(=O)c2cc(OC)c(OC)c(OC)c2)cc1O`, the GI50 in data set [1] was determined as 3.5 nM; in data set [2], 14 nM. The half-maximal inhibitory concentration (IC50) in data set [3] was 760 nM.

In the case of `COc1ccc2c(C(=O)c3cc(F)cc(F)c3)c(-c3ccc(OC)c(O)c3)[nH]c2c1`, the concentration for 50% growth inhibition (GI50) in data set [1] came out at 1500 nM; in [2], 3170 nM. Further, half-maximal inhibition in data set [3] (IC50) was put at 820 nM. Also, the inhibition in data set [4] was 50%.

As for `COc1ccc2c(C(=O)c3cccc(Cl)c3)c(-c3ccc(OC)c(O)c3)[nH]c2c1`, the figures for the GI50 in [1] and in data set [2] were 470 nM and 319 nM, respectively. Moreover, in data set [3], the IC50 came out at 450 nM. The inhibition in data set [4] is 69%.

`COc1ccc(/C=C\c2cc(OC)c(OC)c(OC)c2)cc1O` [COMBRETASTATIN A4]: the concentration for 50% growth inhibition (GI50) in data set [1] came to 9.5 nM; in data set [2], 1.7 nM. The compound also showed a 50% inhibitory concentration (IC50) in [3] of 910 nM.

The values are drawn from ChEMBL document CHEMBL6078705 (Bioorg Med Chem, 2025).
